Measurements from patent publication US20070112061A1, “Heat- or singlet oxygen-generating agents and cancer treatment compositions comprising organic peroxide or chemiluminescent compound” (priority 2004, published 2007).

Experiments:
[1] = Solid-state reaction heat by differential thermal analyzer (DSC-50); format: physicochemical; conditions: for Solid reaction heat: solid state, heated to 80-180° C.
Description: (§1) Measurement of reaction heat: heat generated by above-mentioned compounds was measured by a differential thermal analyzer.
Heat measurement of a chemiluminescent system peroxide in the solid state was conducted using a differential thermal analyzer as follows: 2 to 3 mg of the peroxide was weighed, filled into an aluminum capsule, and heated gradually to 80-180° C. by DSC-50 (Shimadzu Corporation) to measure the generated heat.
Measurement of reaction heat: heat generated from above-mentioned compounds was measured by the differential thermal analyzer in accordance with above-mentioned [Measurement I]. Thermal measurement of a dioxetane compound in the solid state was carried out as follows: 2 to 3 mg of the dioxetane compound was weighed, filled into an aluminum capsule, and heated gradually to 80-180° C. by DSC-50 (Shimadzu Corporation) to measure the generated heat.

[2] = Solution reaction heat of chemiluminescent reaction started with 1N KOH/MeOH; format: physicochemical
Description: Reaction heat and chemiluminescent efficiency relating to chemiluminescent reaction of the peroxides (Chemical formula A to Chemical formula L) were measured. Further, the amount of imidazole formed that indicates generation efficiency of singlet oxygen generated by this reaction was measured.
as §1

[3] = test system: established cell line from human large intestine cancer; assay: MTT cytotoxicity assay (anticancer effect); format: cell-based; conditions: for viability at 1 µM / viability at 10 µM / viability at 100 µM: Homo sapiens, read-out: Survival rate of cancer cells; for viability at 1 µM / viability at 10 µM / viability at 100 µM / Survival rate of cancer cells: 48 hours incubation; for Survival rate of cells: 100 μM, MTT assay; for anticancer effect compared to MMC: concentration of 100 μM/L
Description: Cytotoxicity was determined as shown below using MTT method proposed by Mosmann et al. (Mosmann, T.; Rapid colorimetric assay for cellular growth and survival: application proliferation and cytotoxicity assays. J. Immunol. Meth. 65: 55-63, 1983). An established cell line from human large intestine cancer was adjusted on a 10% FCS-containing RPMI 1640 culture solution to have 5×10^3 cells/[…], plated in a 96-well microplate, and incubated for 48 hours. Then, the resultant was added with […] of a peroxide, and incubated under a 5% CO2 condition at 37° C. for 48 hours to determine cytotoxicity by MTT assay^1. MTT assay: Upon completion of the incubation, […] of MTT reagent (5 mg/ml in PBS) was added to each well, and then the formazan left on the bottom of the plate was added with 0.04N HCl to dissolve in isopropanol. OD was measured at a test wavelength and at a reference wavelength of 630 nm.
Survival rate in percentage was calculated by the following equation: Survival rate=(OD test value/OD reference value)×100 (%)

| Solid reaction heat ([1]; peroxides) [kcal/mol] | Solution Reaction heat [2] [kcal/mol] | Structure (SMILES) | viability at 1 µM ([3]; anticancer agent 1 μM/ml) [%] | viability at 10 µM ([3]; anticancer agent 10 μM/ml) [%] | viability at 100 µM ([3]; anticancer agent 100 μM/ml) [%] | further results |
| --- | --- | --- | --- | --- | --- | --- |
| 50.5 | 54.0 | Cc1cc(C)c(C2=NC(OO)(c3ccccc3)C(c3ccccc3)=N2)c(C)c1 (centres unmarked) [Chemical formula L, 4-Hydroperoxy-2-(2′,4′,6′-trimethylphenyl)-4,5-diphenyl-4H-isoimidazole] | – | – | – | – |
| 35.3 | 46.0 | Nc1ccc(C2=NC(OO)(c3ccccc3)C(c3ccccc3)=N2)cc1 (centres unmarked) [Chemical formula H, 2-(4-Aminophenyl)-4-hydroperoxy-4,5-diphenyl-4H-isoimidazole] | 100 | 97.5 | 87.4 | – |
| 47.6 | – | OOC1(c2ccccc2)N=C(c2cccc(O)c2)N=C1c1ccccc1 (centres unmarked) [Chemical formula D] | 93.3 | 92.2 | 71.2 | – |
| – | – | COc1ccc(C2(OC)OOC23C2CC4CC(C2)CC3C4)cc1 (centres unmarked) [Chemical formula M, 3-(2′-Spiroadamantane)-4-methoxy-4-(4″-methoxy)phenyl-1,2-dioxetane] | – | – | – | Survival rate of cells [3]: 55%; Solid reaction heat ([1]; dioxetanes): 68.8 kcal/mol |
| 53.6 | – | OOC1(c2ccccc2)N=C(c2ccc(O)cc2)N=C1c1ccccc1 (centres unmarked) [Chemical formula C, 4-Hydroperoxy-2-(4-hydroxyphenyl)-4,5-diphenyl-4H-imidazole] | 91.9 | 82.2 | 11.1 | anticancer effect compared to MMC [3]: comparable to the commercially available MMC; melting point: 125 to 127 °C (dec.) |
| – | – | OOC1(c2ccccc2)N=C(c2ccccc2O)N=C1c1ccccc1 (centres unmarked) [Chemical formula E, 4-Hydroperoxy-2-(2-hydroxyphenyl)-4,5-diphenyl-4H-isoimidazole] | – | 88.1 | 11.8 | anticancer effect compared to MMC [3]: comparable to the commercially available MMC |
| – | – | COc1cccc(C2(OC)OOC23C2CC4CC(C2)CC3C4)c1 (centres unmarked) [Chemical formula N, 3-(2′-Spiroadamantane)-4-methoxy-4-(3″-methoxy)phenyl-1,2-dioxetane] | – | – | – | Survival rate of cells [3]: 67%; Solid reaction heat ([1]; dioxetanes): 66.8 kcal/mol |
| 15.0 | 22.4 | O=Cc1ccc(C2=NC(OO)(c3ccccc3)C(c3ccccc3)=N2)cc1 (centres unmarked) [Chemical formula K, 2-(4-Formylphenyl)-4-hydroperoxy-4,5-diphenyl-4H-isoimidazole] | – | – | – | – |
| 18.7 | 53.8 | OOC1(c2ccccc2)N=C(c2ccccc2)N=C1c1ccccc1 (centres unmarked) [Chemical formula A, 4-Hydroperoxy-2,4,5-triphenyl-4H-isoimidazole] | 100 | 100 | 78.3 | melting point: 108 to 110 °C (dec.) |
| – | – | CC(C)(C)[Si](C)(C)OOC1(c2ccccc2)N=C(c2ccc(C3=NC(OO[Si](C)(C)C(C)(C)C)(c4ccccc4)C(c4ccccc4)=N3)cc2)N=C1c1ccccc1 (centres unmarked) [Chemical formula P] | – | – | – | generation heat [1]: 147 kcal/mol |
| – | – | OOC1(c2cccc(O)c2)N=C(c2ccccc2)N=C1c1cccc(O)c1 (centres unmarked) [Chemical formula F, 4-Hydroperoxy-4,5-bis(3-hydroxyphenyl)-2-phenyl-4H-isoimidazole] | – | 87.4 | 42.2 | – |
| – | – | CO[C@@]12[C@H](COC(N)=O)C3=C(C(=O)C(C)=C(N)C3=O)N1C[C@@H]1N[C@@H]12 [MMC, mitomycin C, reference compound] | – | – | – | Survival rate of cancer cells ([3]; anticancer agent 1 μM/ml): 65.0%; Survival rate of cancer cells ([3]; anticancer agent 10 μM/ml): 28.0%; Survival rate of cancer cells ([3]; anticancer agent 100 μM/ml): 14.5% |
| – | – | OOC1(c2ccccc2)N=C(c2ccc(C3=NC(OO)(c4ccccc4)C(c4ccccc4)=N3)cc2)N=C1c1ccccc1 (centres unmarked) [Chemical formula O] | – | – | – | generation heat [1]: 47.1 kcal/mol |
| 61.0 | 66.3 | CN(C)c1ccc(C2=NC(OO)(c3ccc(F)cc3)C(c3ccc(F)cc3)=N2)cc1 (centres unmarked) [Chemical formula B, 4,5-Bis(4-fluorophenyl)-4-hydroperoxy-2-(4-dimethylaminophenyl)-4H-isoimidazole] | 100 | 93.7 | 37 | melting point: 125 to 128 °C (dec.) |
| – | – | OOC1(c2ccccc2)N=C(c2cccc(C3=NC(OO)(c4ccccc4)C(c4ccccc4)=N3)c2)N=C1c1ccccc1 (centres unmarked) [Chemical formula Q] | – | – | – | generation heat [1]: 30.5 kcal/mol |
| – | – | CC(C)(C)[Si](C)(C)OOC1(c2ccccc2)N=C(c2cccc(C3=NC(OO[Si](C)(C)C(C)(C)C)(c4ccccc4)C(c4ccccc4)=N3)c2)N=C1c1ccccc1 (centres unmarked) [Chemical formula R] | – | – | – | generation heat [1]: 143 kcal/mol |
| 52.3 | 48.7 | O=[N+]([O-])c1ccc(C2=NC(OO)(c3ccccc3)C(c3ccccc3)=N2)cc1 (centres unmarked) [Chemical formula J] | – | – | – | – |
| – | – | OOC1(c2ccc3c(c2)OCCOCCOCCOCCO3)N=C(c2ccccc2)N=C1c1ccc2c(c1)OCCOCCOCCOCCO2 (centres unmarked) [Chemical formula G, Bis(crown ether)iophineperoxide] | – | 87.2 | 48.2 | – |

| Structure (SMILES) | Solid reaction heat ([1]; peroxides) [kcal/mol] | Solution Reaction heat [2] [kcal/mol] | viability at 1 µM ([3]; anticancer agent 1 μM/ml) [%] | viability at 10 µM ([3]; anticancer agent 10 μM/ml) [%] | viability at 100 µM ([3]; anticancer agent 100 μM/ml) [%] | further results |
| --- | --- | --- | --- | --- | --- | --- |
| CC(C)(C)[Si](C)(C)OOC1(c2ccccc2)N=C(c2ccccc2)N=C1c1ccccc1 (centres unmarked) [Chemical formula I, 4-t-Butyldimethylsilylperoxy-2,4,5-triphenyl-4H-isoimidazole] | 91.4 | – | 97.2 | 95.9 | 60.6 | melting point: 93.5 to 96 °C |
